# Results taken from patent publication US20240189387A1, “DOSING REGIMENS FOR HEMATOPOIETIC STEM CELL MOBILIZATION FOR STEM CELL TRANSPLANTS IN MULTIPLE MYELOMA PATIENTS” (Ensoma, Inc., priority 2021, published 2024).
# Like-named read-outs stand apart in the source and are kept apart here.
# Tests used:
# [1] = system: hematopoietic stem and progenitor cells; settings: U.S. Pat. No. 6,447,766; cited from earlier work
# [2] = system: CD34+CD90+CD45RA− cells; assay: Phase 1 trial: mobilization of CD34+CD90+CD45RA− cells into peripheral blood (flow cytometry); settings: plerixafor alone
# [3] = system: CD34+ cells; settings: historical plerixafor alone data, Devine et al., Blood 2008; cited from earlier work
# [4] = system: graft cell subsets (T cells, B cells, NK cells); settings: cited from earlier work
# [5] = Phase 1 trial: treatment emergent adverse events; settings: Part B, combination n = 38; plerixafor n = 14
# Description: FIG. 1A depicts the treatments provided to patient cohorts enrolled in Part A and Part B of a Phase 1 clinical trial as well as measurable endpoints.
# Patients were monitored for emergent adverse events.
# [6] = system: CD34+ cells; assay: Phase 1 trial: mobilization of CD34+ cells into peripheral blood (multicolor flow cytometry); settings: for % ≥20/μL peak CD34+ / Peak CD34+ (#/μL) Median (range): Day 1
# [7] = Chen et al., 2019, 2 LP plerixafor, 1 LP G-CSF
# [8] = Devine et al, 2008, yield of 1 LP
# [9] = Part B, plerixafor (pooled placebo + plerixafor), listed as plerixafor
# [10] = Part C, 8 patients on combination (0.03 or […]), plerixafor alone
# [11] = Part C, plerixafor (pooled placebo + plerixafor), listed as plerixafor
compound,measurement,setting,value
Gro-β T N65D: SEQ ID NO: 4; Gro-β T with aspartic acid in place of asparagine at position 65,potency (hematopoietic stem and progenitor cell mobilization) relative to Gro-β T,[1],substantially greater than that of Gro-β T
"c1cc(CN2CCCNCCNCCCNCC2)ccc1CN1CCCNCCNCCCNCC1 [Plerixafor, 1,1′-[1,4-phenylenebis(methylene)]-bis-1,4,8,11-tetra-azacyclotetradecane]",median peak CD34+CD90+CD45RA− cells,[2],8 cells/μL
same,patients with peak CD34+ ≥20 cells/μL (%),[3],28% (7/25)
same,patients with peak CD34+ ≥40 cells/μL (%),[3],4% (1/25)
same,graft CD34+ Median (range),"[4]; Chen et al., 2019, 2 LP for plerixafor (N = 50+), 1 LP for G-CSF (N = 112+)",4.7 (0.9-9.6) ×10^6/kg
same,graft CD3+ Median (range),[4]; [7],6.0 (2.7-13.0) ×10^8/kg
same,graft CD4+ Median (range),[4]; [7],3.6 (2.0-9.4) ×10^8/kg
same,graft CD8+ Median (range),[4]; [7],2.2 (0.5-5.0) ×10^8/kg
same,graft CD19+ Median (range),[4]; [7],1.5 (0.2-7.4) ×10^8/kg
same,graft CD56+ Median (range),[4]; [7],0.4 (0.0-1.1) ×10^8/kg
same,graft CD3+ Median (range),[4]; [8],4.6 (1.5-7.8) ×10^8/kg
same,graft CD4+ Median (range),[4]; [8],3.2 (1-5.7) ×10^8/kg
same,graft CD8+ Median (range),[4]; [8],1.3 (0.4-3.4) ×10^8/kg
same,graft CD19+ Median (range),[4]; [8],1.0 (0.2-2.4) ×10^8/kg
same,graft CD56+ Median (range),[4]; [8],0.3 (0.1-1.0) ×10^8/kg
same,graft CD34+ Median (range),"[4]; Devine et al, 2008, yield of 1 LP, plerixafor N = 24, G-CSF N = 8",2.9 (1.2-6.3) ×10^6/kg
same,Abdominal discomfort/pain,[5],4 (28.6) n (%)
same,Back pain/Musculoskeletal pain,[5],2 (14.3) n (%)
same,Diarrhea,[5],5 (35.7) n (%)
same,Dizziness,[5],1 (7.1) n (%)
same,Dysgeusia,[5],2 (14.3) n (%)
same,Headache,[5],1 (7.1) n (%)
same,Nausea,[5],2 (14.3) n (%)
same,Vomiting,[5],1 (7.1) n (%)
same,% ≥40/μL peak CD34+,"[6]; Part B, plerixafor",21%
same,% ≥20/μL peak CD34+,"[6]; Part B, plerixafor (pooled placebo + plerixafor)",64%
same,% ≥20/μL peak CD34+,[6]; [9],64%
same,Peak CD34+ (#/μL) Median (range),[6]; [9],26 #/μL
same,patients achieving peak CD34+ count of at least 20 cells per microliter,[6]; [10],none
same,patients achieving peak CD34+ count of at least 40 cells per microliter,[6]; [10],none
same,% ≥20/μL peak CD34+,"[6]; Part C, plerixafor (pooled placebo + plerixafor)",0%
same,% ≥20/μL peak CD34+,[6]; [11],0%
same,Peak CD34+ (#/μL) Median (range),[6]; [11],18 #/μL
same,% ≥40/μL peak CD34+,"[6]; Part C, plerixafor, first day",0%
same,Peak CD34+ (#/μL) Median,"[6]; Part C, pooled placebo + plerixafor, Day 2",17 #/μL
same,% ≥40/μL peak CD34+,"[6]; Pooled B + C, plerixafor",14%
same,% ≥20/μL peak CD34+,"[6]; Pooled B + C, plerixafor",50%
same,% ≥20/μL peak CD34+,"[6]; Pooled B + C, plerixafor, listed as plerixafor",56%
same,patients with peak CD34+ ≥20 cells/μL (%),[6]; plerixafor alone,50% (7/14)
same,patients with peak CD34+ ≥40 cells/μL (%),[6]; plerixafor alone,14% (2/14)
